Experimental data as given in publication PMC4979516, “Quinazoline-based tricyclic compounds that regulate programmed cell death, induce neuronal differentiation, and are curative in animal models for excitotoxicity and hereditary brain disease” (Cell Death Discovery, 2015).
Entries after “also recorded” stand apart in the source; their conditions may differ.

B1: NGF: mouse NGF, 2.5S from Promega; classical agent to induce neuronal differentiation of PC12 cells (protein, UniProt P01139 122-241, looked up)
Beta-nerve growth factor: SSTHPVFHMGEFSVCDSVSVWVGDKTTATDIKGKEVTVLAEVNINNSVFRQYFFETKCRASNPVESGCRGIDSKHWNSYCTTTHTFVKALTTDEKQAAWRFIRIDTACVCVLSRKATRRG

Assays:
[1] = system: NeuN expression in PC12 cells strain #3; test: Western blot of NeuN in PC12 strain #3; assay type: cell-based, rat; settings: PC12 strain #3, versus vehicle control
Procedure: The relative protein levels of TSPO and other proteins related to neurodifferentiation (including β-actin, NeuN, tubulin-3β), were assayed by immunoblotting with the aid electrophoresis through 12% SDS-polyacrylamide gel, according to previously described methods.[71] A priori, general protein levels were measured by the method of Bradford using BSA as a standard.[75] After electrophoresis, the gels were subjected to electrophoretic transfer to nitrocellulose membranes. Then, the membranes were blocked for 1 h in 5% non-fat milk in 62.5 mM sodium phosphate buffer, pH 7.4, containing 100 mM NaCl, and 0.1% (v/v) Tween-20 (PBS-T) and then incubated for 2 h or overnight at 4 °C with the appropriate antibodies: anti-tubulin-3β 1 : 10 000, anti-NeuN 1 : 1000, anti β-actin 1 : 15 000, and anti-TSPO 1 : 10 000.[73] After washing with TBS-T, the membranes were incubated with IgG secondary antibody linked to horseradish peroxidase (anti-rabbit IgG 1 : 20 000, anti-mouse IgG 1 : 10 000, as appropriate, from Jackson Immunologicals, West Grove, PA, USA) in TBS-T at room temperature. Binding of antibodies to the membrane was detected with the EZ-ECL-detection reagent (Biological Industries), using the ImageQuant LAS 4010 apparatus and Totallab Quant quantitative image analysis of Totallab (Newcastle upon Tyne, England).

[2] = system: PC12 cells strain #1 (polygonal cells); test: Neuronal differentiation (neurite sprouting) of PC12 strain #1; assay type: cell-based, rat; settings: strain #1, only polygonal cells
R6-2 mice = test: R6-2 transgenic mouse model for Huntington disease (lifespan, behavior); assay type: in vivo; settings: for Effect on behavior and lifespan of R6-2 mice: pilot studies, s.c. daily 5 days per week, MGV-1 15 mg/kg, PK 11195 15 mg/kg, MGV-2 15 and 7.5 mg/kg; for Week of age until which 50% of treated R6-2 mice were still alive: 7.5 mg/kg s.c. daily 5 days per week, vehicle: 11th week (2-Cl-MGV-1 study), 10th week (2-Cl-MGV-2 study); for Uncontrollable tremor activity of R6-2 mice: 7.5 mg/kg s.c., data not shown
Excerpt: Huntington disease in humans is a hereditary disease including neurodegeneration leading to degradation in motor performance, continual involuntary movements, tremors, cardiovascular and respiratory impairments, and finally leading to death of the patients having the disease.[88] For this study, R6-2 mice (~120 CAG repeats B6CBA-Tg(HDexon1)62 Gpb/3J) mice were used as a transgenic mouse model for Huntington disease. For this purpose, mice obtained from the Jackson Laboratory were bred. In particular, males hemizygous for Tg(HDexon1)62 Gpb, and females from the wild-type background strain B6CBAF1/J, were bred according to the protocol of Jackson Laboratory.
For tests of drug efficacy, male offspring hemizygous for Tg(HDexon1)62 Gpb were used to determine drug effect on lifespan, motor activity, and general well-being of the animals. Drug treatment for this study consisted of daily (5 continuous days per week) subcutaneous injections in the neck area of mice with 20 μl of: the drug vehicle DMSO (vehicle control), 2-Cl-MGV-1(7.5 mg/kg) and 2-Cl-MGV-2 (7.5 mg/kg). […] Quantities were used according to previous studies regarding TSPO ligands[48] and adapted depending on the findings in the course of the pilot studies. The treatments were given until the animals died a natural death. Behavioral experiments included distance covered in an open field apparatus,[89] freezing,[89] and balance on a rotor-rod.[90] Spontaneous tremor activity was evaluated using a Hamilton–Kinder sensor in a soundproof ventilated apparatus (Kinder Scientific). The assays for locomotor activity, tremors, and body weight were performed on a weekly basis, together with evaluation of the well-being of the mice. Finally, the day of death was noted. As lifespan data were most pronounced, these are presented in the present description of the results. No adverse effects of any of the drug treatments were noted, neither for specific tests, nor for general observations. Importantly, DMSO had no effect by itself as compared with naive mice or saline-injected mice with various behavioral assays.[20]

PC12 cells = test: Neuronal differentiation of PC12 cells, strain not specified; assay type: cell-based, rat; settings: agent by itself; MGV-1 50 μM
Procedure: For our newly developed differentiation method by MGV-1 in combination with glutamate, PC12 cells were plated onto poly-L-lysine coated culture plates and Petri dishes at a relatively low density (5.2×10^3 cells/cm^2 for six-well plates and 3.6×10^3 cells/cm^2 for Petri dishes), in DMEM medium containing 8% heat-inactivated FBS and 8% horse serum. […] Exposure to vehicle alone (culture medium with 1% of ethanol) was used as the control.
The major and determining indication of neural differentiation of PC12 cells is neurite development.[23],[80] […] The number of differentiated cells was determined by visual examination of the captured fields. In particular, a line was drafted at half height of the image and the cell bodies crossed by the line were further analyzed regarding differentiation. […] Cells with at least one identifiable neurite with a length at least equal to the cell body diameter were scored, and their number expressed as a percentage of the total number of cells crossed by said line. In addition, for each of these cells, the length of the longest neurite was determined (using AxioVision Image software, Zeiss). […]

U118MG cells [3] = test: LDH cytotoxicity assay, glutamate-induced cell death of U118MG cells; settings: for Lethal effects of the compound (LDH): compound 10-100 μM by itself or with 35 mM glutamate; for Protection against glutamate-induced cell death (LDH): 35 mM glutamate, compound 10-100 μM, 24 h pretreatment
Procedure: (1) For U118MG cells, glutamate at a concentration of 35 mM was applied with or without MGV-1. As discussed, glutamate levels in normal healthy brain tissue can average 15 mM, and these levels can be doubled in diseased brain tissue, whereas in cell organelles glutamate levels can be as high as 250 mM (as discussed). […] In more detail, U118MG cells were seeded, 2×10^5 cells per well of 6-well plates and 6×10^3 cells per well of 96-well plates. Twenty-four hours after seeding, U118MG cells were pretreated with MGV-1 (or one of the other compounds) at various concentrations from 0.1 nM–100 μM. Twenty-four hours after the pretreatment, the cells were exposed to 35 mM of glutamate. […] The negative control was vehicle, that is, ethanol with a final concentration of 1%. […] The positive control was exposure to 35 mM of glutamate alone (with 200 μM of glycine).
Wells of 96-well plates were with 6000 cells per well and treated according the protocol presented above. We used the Cytotoxicity Detection Kit (LDH) (Roche Pharmacuticals) according to the manufacturer’s instructions. When cell plasma membranes are damaged, the cytoplasmic enzyme LDH is released into the medium. The amount of formazan formed is proportional to the amount of LDH released.[77] The resulting color intensity is proportional to the number of damaged cells. Absorbance at 492 nm with reference at 690 nm was measured with the Spectrophotometer Zenyth 200 (Anthos) and the results were calculated and normalized according to the formula presented by the manufacturer.

[4] = target: T1, 18 kDa translocator protein (TSPO) (Rattus norvegicus, UniProt P16257); test: TSPO binding, displacement of [3H]PK 11195 in rat kidney membranes
T1 construct: 400 μl of homogenized rat kidney membranes (5 mg of homogenate/ml); from tissue; host or cells: rat kidney (homogenized membranes)
T1 sequence (P16257 whole entry): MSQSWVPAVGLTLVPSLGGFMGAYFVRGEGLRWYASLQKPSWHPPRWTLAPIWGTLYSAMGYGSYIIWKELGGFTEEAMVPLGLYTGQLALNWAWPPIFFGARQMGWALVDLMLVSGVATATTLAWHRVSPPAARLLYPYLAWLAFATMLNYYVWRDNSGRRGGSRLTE
Procedure: After incubation for 60 min at 4 °C, samples were filtered under vacuum over Whatman GF/C filters and washed three times with 5 ml of 50 mM Tris-HCl buffer, pH 7.4. The filters were incubated in CytoScint (MP Biomedicals) and radioactivity was measured after 12 h with a 1600 CA Tri-Carb liquid scintillation analyzer (Packard). Inhibitory constant (Ki) values were calculated by the equation Ki=IC50/(1+C/Kd), where C=[^3H]

U118MG cells [5] = test: Mitochondrial ROS / cardiolipin oxidation (NAO) assay in U118MG cells exposed to glutamate; assay type: cell-based, human; settings: 25 μM compound, 35 mM glutamate
Excerpt: Cardiolipin is present in the inner mitochondrial membrane, at the contact sites with the outer mitochondrial membrane. By application of NAO, we assayed cardiolipin peroxidation as an indication of mitochondrial ROS generation, as described previously.[71] NAO binds with high affinity to non-oxidized cardiolipin in a 2 : 1 ratio, but with less affinity to oxidized cardiolipin, the latter which is reflected by lower levels of green NAO fluorescence.[78] For our study, cells were collected and centrifuged at 1200×g for 5 min, 4 °C. Cell pellets were re-suspended in 0.5 ml of 0.1 μM NAO and incubated for 30 min at 37 °C in the dark. Then, the cells were washed once with 0.5 ml PBS and transferred into 5 ml FALCON FACS tubes and analyzed with the aid of a BD FACSCalibur flow cytometer using CellQuest software (BD Biosciences, Franklin Lakes, NJ, USA).

U118MG cells [6] = test: Mitochondrial membrane potential (JC-1) assay in U118MG cells exposed to glutamate; assay type: cell-based, human; settings: 25 μM compound, 35 mM glutamate
Excerpt: JC-1 was used to assay changes in Δψm, as described previously.[71],[79] Owing to charges distributed along JC-1 molecules, they pass unimpaired (charged) mitochondrial membranes and enter the mitochondrial matrix. There the J-molecules form J-aggregates, which emit at 590 nm (orange–red fluorescence). […] The monomers emit at 527 nm (green fluorescence). A decrease in the red–green fluorescence intensity ratio is an indication for mitochondrial depolarization. As a positive control, the proton ionophore carbonyl cyanide m-chlorophenylhydrazone was used as described previously.[71] Cells were collected and prepared for suspension in 10 μg/ml of JC-1 solution in PBS. After incubation at 37 °C for 30 min in the dark, the cells were washed with 0.5 ml of PBS, and the cell suspensions were analyzed with the BD FACSCalibur flow cytometer.

Molecule	Lethal effects of the compound (LDH) (U118MG cells [3])	Ki [4] [µM]	Protection against glutamate-induced cell death (LDH) (U118MG cells [3])	other results
N[C@@H](CCC(=O)O)C(=O)O [Glu, Glutamate, reference compound]	–	–	–	Increase of NeuN expression (western blot) [1]: do not enhance NeuN expression significantly; Differentiation of PC12 strain #1 by the agent by itself [2]: do not have this effect
CCC(C)N(C)C(=O)c1cc2ccccc2c(-c2ccccc2Cl)n1 (centres unmarked) [PK 11195, N-butan-2-yl-1-(2-chlorophenyl)-N-methylisoquinoline-3-carboxamide, reference compound]	–	–	–	Effect on behavior and lifespan of R6-2 mice (R6-2 mice): did not show such effects; Neuronal differentiation of PC12 cells (neurite outgrowth) (PC12 cells): can differentiate PC12 cells
CCN(CC)C(=O)Oc1nc(-c2ccccc2Cl)nc2ccccc12 [2-Cl-MGV-3, 2-(2-chlorophenyl)quinazolin-4-yl diethylcarbamate]	undesired lethal effects at 50 and 100 μM both with and without glutamate exposure	0.0026 ± 0.001	–	–
CCN(C)C(=O)Oc1nc(-c2ccccc2)nc2ccccc12 [MGV-2, 2-phenylquinazolin-4-yl ethyl(methyl)carbamate]	undesired lethal effects at high concentrations (in particular 100 μM)	0.08 ± 0.011	protect against lethal effects of glutamate; also recorded: already quite effective at 10 μM	Prevention of cardiolipin oxidation / mitochondrial ROS generation induced by glutamate (NAO) (U118MG cells [5]): prevent cardiolipin oxidation; Effect on behavior and lifespan of R6-2 mice (R6-2 mice): effects reminiscent of those of 2-Cl-MGV-1 and 2-Cl-MGV-2, but less consistent; Prevention of collapse of the ΔΨm induced by glutamate (JC-1) (U118MG cells [6]): prevention of the collapse of the ΔΨm
CCN(CC)C(=O)Oc1nc(-c2ccccc2)nc2ccccc12 [MGV-3, 2-phenylquinazolin-4-yl diethylcarbamate]	undesired lethal effects at high concentrations (in particular 100 μM)	0.0026 ± 0.001	protect against lethal effects of glutamate; also recorded: already quite effective at 10 μM	–
CN(C)C(=O)Oc1nc(-c2ccccc2Cl)nc2ccccc12 [2-Cl-MGV-1, 2-(2-chlorophenyl)quinazolin-4-yl dimethylcarbamate]	very little lethality by itself at any concentration; also recorded: shows the least lethal effects when applied just by itself	0.825 ± 0.315	–	Week of age until which 50% of treated R6-2 mice were still alive (R6-2 mice): 12 week; Uncontrollable tremor activity of R6-2 mice (R6-2 mice): reduction of uncontrollable tremor activity
CCN(C)C(=O)Oc1nc(-c2ccccc2Cl)nc2ccccc12 [2-Cl-MGV-2, 2-(2-chlorophenyl)quinazolin-4-yl ethyl(methyl)carbamate]	undesired lethal effect at high concentrations when given just by itself	0.08 ± 0.011	protects excellently; also recorded: very effective in protecting against glutamate-induced cell death	Week of age until which 50% of treated R6-2 mice were still alive (R6-2 mice): 12 week; Uncontrollable tremor activity of R6-2 mice (R6-2 mice): reduction of uncontrollable tremor activity
B1	–	–	–	Increase of NeuN expression (western blot) [1]: do not enhance NeuN expression significantly; Differentiation of PC12 strain #1 by the agent by itself [2]: do not have this effect
